Literature values, collected in patent US8715648B2, “Method for treating obesity with anti-obesity formulations and omega 3 fatty acids for the reduction of body weight in cardiovascular disease patients (CVD) and diabetics” (Pivotal Therapeutics Inc., priority 2011, dated 2014).

Biological target: CB1R (Homo sapiens, UniProt P21554)
Conditions: in vivo

Sequence of CB1R (P21554 whole entry): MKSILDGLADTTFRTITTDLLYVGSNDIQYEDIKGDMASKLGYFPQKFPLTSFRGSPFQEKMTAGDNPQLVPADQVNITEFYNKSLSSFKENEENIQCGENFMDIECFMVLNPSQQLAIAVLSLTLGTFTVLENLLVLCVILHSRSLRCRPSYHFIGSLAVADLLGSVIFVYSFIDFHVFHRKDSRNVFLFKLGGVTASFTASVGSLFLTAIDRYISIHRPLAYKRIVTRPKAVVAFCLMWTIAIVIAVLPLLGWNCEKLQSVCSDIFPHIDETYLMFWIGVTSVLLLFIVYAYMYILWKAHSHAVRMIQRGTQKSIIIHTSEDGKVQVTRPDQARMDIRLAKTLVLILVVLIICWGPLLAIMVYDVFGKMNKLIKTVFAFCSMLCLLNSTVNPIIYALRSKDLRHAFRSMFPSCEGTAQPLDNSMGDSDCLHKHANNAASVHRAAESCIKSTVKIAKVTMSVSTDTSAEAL

SMILES: CCNC1(C(N)=O)CCN(c2ncnc3c2nc(-c2ccccc2Cl)n3-c2ccc(Cl)cc2)CC1.Cl [CP-945,598]
- Reason for failure of phase III clinical trials: psychiatric adverse reactions, including severe depression and anxiety
